PMC6688997 (Nature Communications, 2019)
Read-outs that look alike come from different tables or passages of the source.

Tests used:
Erk5 = target: T1, Erk5 (Homo sapiens, UniProt Q13164); assay: Kinase assay, ATP Km; type: biochemical
T1 construct: purchased Carna Biosciences

[1] = target: T2, phospho-ROS1 in SLC34A2-ROS1 harboring HCC78 cells (Homo sapiens, UniProt O95436+P08922); assay: Immunoblot of ROS1 autophosphorylation; type: cell-based; conditions: 2 h
T2 construct: SLC34A2 (N-terminal fusion partner, human SLC34A2 O95436); endogenous in cells; host or cells: HCC78
T2 sequence (P08922 1883-2347 limits assumed, one chain of several): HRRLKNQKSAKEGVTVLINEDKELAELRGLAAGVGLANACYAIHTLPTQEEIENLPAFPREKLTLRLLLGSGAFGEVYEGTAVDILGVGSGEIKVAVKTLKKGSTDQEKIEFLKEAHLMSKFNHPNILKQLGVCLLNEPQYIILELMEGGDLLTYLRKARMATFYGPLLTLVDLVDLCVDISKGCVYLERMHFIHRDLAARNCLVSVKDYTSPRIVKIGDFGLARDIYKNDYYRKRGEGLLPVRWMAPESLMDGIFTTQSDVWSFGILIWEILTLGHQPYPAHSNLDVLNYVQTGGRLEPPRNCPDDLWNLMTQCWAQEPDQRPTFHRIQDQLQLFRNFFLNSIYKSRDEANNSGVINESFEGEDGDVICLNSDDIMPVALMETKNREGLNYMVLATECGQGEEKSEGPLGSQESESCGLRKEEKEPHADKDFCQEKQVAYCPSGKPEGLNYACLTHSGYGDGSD

FAK = FAK (Homo sapiens, UniProt Q05397); assay: Kinase assay, 1 mM ATP; type: biochemical
HER2 = HER2 (Homo sapiens, UniProt P04626); assay: Kinase assay, ATP Km; type: biochemical
NEK1 = target: T3, NEK1 (Homo sapiens, UniProt Q96PY6); assay: Kinase assay, ATP Km; type: biochemical
T3 construct: purchased Carna Biosciences

FYN(isoform b) = FYN(isoform b) (Homo sapiens, UniProt P06241); assay: Kinase assay, ATP Km; type: biochemical
[2] = test system: Ba/F3 TPM3-NTRK1 G667C cells; assay: CellTiter-Glo cell viability assay; type: cell-based, murine; conditions: 72 h
PAK5 = PAK5 (Homo sapiens, UniProt Q9P286); assay: Kinase assay, ATP Km; type: biochemical
Sequence of PAK5 (Q9P286 whole entry): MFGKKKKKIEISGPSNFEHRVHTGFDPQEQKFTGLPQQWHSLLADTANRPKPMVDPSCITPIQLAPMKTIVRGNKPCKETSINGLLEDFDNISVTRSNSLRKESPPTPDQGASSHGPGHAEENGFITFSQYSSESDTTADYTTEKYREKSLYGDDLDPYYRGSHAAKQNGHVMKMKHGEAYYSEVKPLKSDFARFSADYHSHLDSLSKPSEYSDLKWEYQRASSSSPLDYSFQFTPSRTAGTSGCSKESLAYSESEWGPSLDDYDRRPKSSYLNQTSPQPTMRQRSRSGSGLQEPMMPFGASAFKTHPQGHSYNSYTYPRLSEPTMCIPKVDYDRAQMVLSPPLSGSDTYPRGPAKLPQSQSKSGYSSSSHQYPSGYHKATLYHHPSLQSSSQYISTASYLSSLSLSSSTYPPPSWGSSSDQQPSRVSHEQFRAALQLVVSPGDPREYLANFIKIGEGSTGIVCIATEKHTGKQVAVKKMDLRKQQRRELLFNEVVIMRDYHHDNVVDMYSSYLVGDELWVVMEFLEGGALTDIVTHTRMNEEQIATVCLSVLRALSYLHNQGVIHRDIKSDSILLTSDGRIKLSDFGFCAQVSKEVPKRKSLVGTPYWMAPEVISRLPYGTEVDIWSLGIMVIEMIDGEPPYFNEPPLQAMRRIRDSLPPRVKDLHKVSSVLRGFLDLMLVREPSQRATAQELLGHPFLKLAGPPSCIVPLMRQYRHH

MELK = target: T4, MELK (Homo sapiens, UniProt Q14680); assay: Kinase assay, ATP Km; type: biochemical
T4 construct: purchased Carna Biosciences

PKCβ2 = PKCβ2 (Homo sapiens, UniProt P05771); assay: Kinase assay, ATP Km; type: biochemical
[3] = test system: EML4-ALK WT induced Ba/F3 cells; assay: CellTiter-Glo cell viability assay; type: cell-based, murine; conditions: 72 h, read-out: IC50
SRPK2 = target: T5, SRPK2 (Homo sapiens, UniProt P78362); assay: Kinase assay, ATP Km; type: biochemical
T5 construct: purchased Carna Biosciences

PHKG1 = target: T6, PHKG1 (Homo sapiens, UniProt Q16816); assay: Kinase assay, ATP Km; type: biochemical
T6 construct: purchased Carna Biosciences

CDK3/CycE1 = CDK3/CycE1 (Homo sapiens, UniProt Q00526); assay: Kinase assay, ATP Km; type: biochemical
KIT = target: T7, KIT (Homo sapiens, UniProt P10721); assay: Kinase assay, 1 mM ATP; type: biochemical
T7 construct: purchased Carna Biosciences, Inc. (Kobe, Japan); assay run by the vendor
T7 sequence (P10721 26-976): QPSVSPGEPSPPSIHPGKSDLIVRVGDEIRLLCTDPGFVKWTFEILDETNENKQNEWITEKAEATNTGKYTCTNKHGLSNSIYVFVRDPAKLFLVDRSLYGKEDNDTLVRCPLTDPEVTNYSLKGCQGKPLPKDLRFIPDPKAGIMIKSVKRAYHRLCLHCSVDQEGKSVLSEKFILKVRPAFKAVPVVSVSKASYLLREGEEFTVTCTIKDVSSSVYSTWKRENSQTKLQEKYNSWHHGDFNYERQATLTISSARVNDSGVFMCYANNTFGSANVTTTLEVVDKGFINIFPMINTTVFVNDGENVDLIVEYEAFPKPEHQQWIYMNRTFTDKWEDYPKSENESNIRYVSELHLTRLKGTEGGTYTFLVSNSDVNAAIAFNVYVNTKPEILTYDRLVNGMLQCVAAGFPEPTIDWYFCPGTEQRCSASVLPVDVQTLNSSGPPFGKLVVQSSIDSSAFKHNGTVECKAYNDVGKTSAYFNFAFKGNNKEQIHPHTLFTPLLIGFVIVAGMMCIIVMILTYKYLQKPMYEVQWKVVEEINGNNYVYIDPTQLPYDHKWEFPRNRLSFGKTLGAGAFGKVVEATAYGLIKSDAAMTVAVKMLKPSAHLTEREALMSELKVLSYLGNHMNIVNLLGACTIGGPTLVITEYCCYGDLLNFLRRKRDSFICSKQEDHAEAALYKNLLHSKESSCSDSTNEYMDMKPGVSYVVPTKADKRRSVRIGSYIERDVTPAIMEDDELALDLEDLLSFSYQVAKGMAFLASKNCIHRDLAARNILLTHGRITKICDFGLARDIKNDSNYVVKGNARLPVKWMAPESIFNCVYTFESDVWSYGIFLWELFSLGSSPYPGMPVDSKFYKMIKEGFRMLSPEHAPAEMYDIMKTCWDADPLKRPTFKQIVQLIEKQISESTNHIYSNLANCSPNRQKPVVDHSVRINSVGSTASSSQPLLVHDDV

[4] = test system: EML4-ALK I1171T induced Ba/F3 cells; assay: CellTiter-Glo cell viability assay; type: cell-based, murine; conditions: Mus musculus, BaF3, 72 h; read-out: IC50
SYK = SYK (Homo sapiens, UniProt P43405); assay: Kinase assay, ATP Km; type: biochemical
SRC = SRC (Homo sapiens, UniProt P12931); assay: Kinase assay, ATP Km; type: biochemical
MST2 = target: T8, MST2 (Homo sapiens, UniProt Q13188); assay: Kinase assay, ATP Km; type: biochemical
T8 construct: purchased Carna Biosciences

TNK1 = target: T9, TNK1 (Homo sapiens, UniProt Q13470); assay: Kinase assay, ATP Km; type: biochemical
T9 construct: purchased Carna Biosciences

PASK = target: T10, PASK (Homo sapiens, UniProt Q96RG2); assay: Kinase assay, ATP Km; type: biochemical
T10 construct: purchased Carna Biosciences

PRKX = target: T11, PRKX (Homo sapiens, UniProt P51817); assay: Kinase assay, ATP Km; type: biochemical
T11 construct: purchased Carna Biosciences

PKCθ = target: T12, PKCθ (Homo sapiens, UniProt Q04759); assay: Kinase assay, ATP Km; type: biochemical
T12 construct: purchased Carna Biosciences

DDR1 = target: T13, DDR1 (Homo sapiens, UniProt Q08345); assay: Kinase assay, ATP Km; type: biochemical
T13 construct: purchased Carna Biosciences, Inc. (Kobe, Japan); assay run by the vendor

JAK2 = target: T14, JAK2 (Homo sapiens, UniProt O60674); assay: Kinase assay, 1 mM ATP; type: biochemical
T14 construct: purchased Carna Biosciences
T14 sequence (O60674 whole entry): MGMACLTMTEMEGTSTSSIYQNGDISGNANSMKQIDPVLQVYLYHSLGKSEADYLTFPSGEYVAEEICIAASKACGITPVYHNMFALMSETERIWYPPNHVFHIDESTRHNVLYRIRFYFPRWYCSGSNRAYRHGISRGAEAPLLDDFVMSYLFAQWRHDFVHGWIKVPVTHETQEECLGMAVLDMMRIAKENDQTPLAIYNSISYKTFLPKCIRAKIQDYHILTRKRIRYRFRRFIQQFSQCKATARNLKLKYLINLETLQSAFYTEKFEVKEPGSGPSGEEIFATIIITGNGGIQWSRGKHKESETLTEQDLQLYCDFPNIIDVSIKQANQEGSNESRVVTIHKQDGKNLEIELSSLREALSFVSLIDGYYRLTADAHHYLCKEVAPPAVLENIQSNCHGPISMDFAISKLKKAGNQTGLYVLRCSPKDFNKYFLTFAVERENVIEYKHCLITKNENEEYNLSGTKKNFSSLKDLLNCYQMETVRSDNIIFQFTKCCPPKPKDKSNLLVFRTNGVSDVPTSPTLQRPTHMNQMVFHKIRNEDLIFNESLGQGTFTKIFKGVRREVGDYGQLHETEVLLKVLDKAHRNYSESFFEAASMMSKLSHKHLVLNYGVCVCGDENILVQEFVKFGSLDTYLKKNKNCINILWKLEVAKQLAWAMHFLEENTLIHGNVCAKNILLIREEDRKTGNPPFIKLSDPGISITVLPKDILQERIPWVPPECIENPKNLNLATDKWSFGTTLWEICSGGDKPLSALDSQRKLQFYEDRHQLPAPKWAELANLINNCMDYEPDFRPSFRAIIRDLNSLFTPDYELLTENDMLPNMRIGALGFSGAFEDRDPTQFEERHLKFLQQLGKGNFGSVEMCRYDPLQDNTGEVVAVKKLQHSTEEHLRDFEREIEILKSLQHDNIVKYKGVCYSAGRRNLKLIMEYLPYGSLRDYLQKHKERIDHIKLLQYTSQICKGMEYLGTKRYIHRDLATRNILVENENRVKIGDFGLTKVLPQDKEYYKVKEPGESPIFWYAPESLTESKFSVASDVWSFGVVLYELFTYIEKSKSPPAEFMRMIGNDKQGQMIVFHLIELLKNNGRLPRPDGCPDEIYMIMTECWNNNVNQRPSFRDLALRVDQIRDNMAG

FLT3 = target: T15, FLT3 (Homo sapiens, UniProt P36888); assay: Kinase assay, ATP Km; type: biochemical
T15 construct: purchased Carna Biosciences
T15 sequence (P36888 27-993): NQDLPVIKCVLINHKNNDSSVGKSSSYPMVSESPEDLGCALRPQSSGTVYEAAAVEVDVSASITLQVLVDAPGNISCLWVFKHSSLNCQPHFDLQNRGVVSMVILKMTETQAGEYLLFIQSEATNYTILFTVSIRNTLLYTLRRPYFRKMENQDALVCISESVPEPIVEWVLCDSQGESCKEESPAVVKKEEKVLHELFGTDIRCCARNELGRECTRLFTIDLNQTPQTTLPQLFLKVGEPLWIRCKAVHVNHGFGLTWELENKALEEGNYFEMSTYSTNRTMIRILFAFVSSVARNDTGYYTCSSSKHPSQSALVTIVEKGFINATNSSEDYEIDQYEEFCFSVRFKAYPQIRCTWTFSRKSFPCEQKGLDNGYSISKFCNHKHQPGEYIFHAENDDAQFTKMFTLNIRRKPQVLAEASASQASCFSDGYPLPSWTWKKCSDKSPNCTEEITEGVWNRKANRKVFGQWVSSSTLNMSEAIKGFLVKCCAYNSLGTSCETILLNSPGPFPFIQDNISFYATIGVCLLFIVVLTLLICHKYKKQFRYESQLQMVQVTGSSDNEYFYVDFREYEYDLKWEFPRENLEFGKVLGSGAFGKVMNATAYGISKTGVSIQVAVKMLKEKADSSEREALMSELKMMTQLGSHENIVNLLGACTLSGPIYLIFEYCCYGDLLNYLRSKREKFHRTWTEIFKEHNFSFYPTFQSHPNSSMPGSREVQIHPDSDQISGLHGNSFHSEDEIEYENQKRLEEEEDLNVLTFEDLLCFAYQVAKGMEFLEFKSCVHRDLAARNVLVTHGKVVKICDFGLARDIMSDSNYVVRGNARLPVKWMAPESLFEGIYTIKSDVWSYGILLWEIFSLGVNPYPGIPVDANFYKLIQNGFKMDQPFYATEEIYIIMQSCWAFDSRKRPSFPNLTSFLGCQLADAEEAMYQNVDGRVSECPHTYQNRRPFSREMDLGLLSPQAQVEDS

[5] = test system: SLC34A2-ROS1-G2032R overexpressing HCC78xe3 cells; assay: Cell viability in 3D culture, CellTiter-Glo; type: cell-based; conditions: 72 h
NTRK1 = target: T16, NTRK1 (Homo sapiens, UniProt P04629); assay: Kinase assay, 1 mM ATP; type: biochemical
T16 construct: purchased Carna Biosciences, Inc. (Kobe, Japan)
T16 sequence (P04629 33-796): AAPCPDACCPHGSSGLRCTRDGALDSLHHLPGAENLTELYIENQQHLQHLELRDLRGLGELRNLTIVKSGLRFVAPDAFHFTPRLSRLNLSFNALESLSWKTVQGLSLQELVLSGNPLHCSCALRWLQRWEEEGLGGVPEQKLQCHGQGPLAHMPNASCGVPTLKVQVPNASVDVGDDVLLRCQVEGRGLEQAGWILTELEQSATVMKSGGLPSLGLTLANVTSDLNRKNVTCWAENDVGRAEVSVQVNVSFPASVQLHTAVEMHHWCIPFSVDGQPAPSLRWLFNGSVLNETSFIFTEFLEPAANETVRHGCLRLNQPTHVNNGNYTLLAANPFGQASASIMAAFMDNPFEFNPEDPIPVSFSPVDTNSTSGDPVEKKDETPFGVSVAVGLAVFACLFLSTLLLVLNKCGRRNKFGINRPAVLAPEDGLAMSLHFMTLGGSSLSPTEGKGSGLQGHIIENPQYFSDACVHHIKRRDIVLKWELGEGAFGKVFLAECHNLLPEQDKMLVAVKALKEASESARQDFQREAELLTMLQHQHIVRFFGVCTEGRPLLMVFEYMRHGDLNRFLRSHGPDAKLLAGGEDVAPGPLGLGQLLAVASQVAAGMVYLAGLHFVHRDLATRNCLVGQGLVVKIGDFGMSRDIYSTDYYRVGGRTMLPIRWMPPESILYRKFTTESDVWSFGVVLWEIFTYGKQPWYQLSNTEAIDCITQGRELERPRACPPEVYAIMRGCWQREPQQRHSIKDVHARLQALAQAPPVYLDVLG

MUSK = target: T17, MUSK (Homo sapiens, UniProt O15146); assay: Kinase assay, ATP Km; type: biochemical
T17 construct: purchased Carna Biosciences
T17 sequence (O15146 24-869): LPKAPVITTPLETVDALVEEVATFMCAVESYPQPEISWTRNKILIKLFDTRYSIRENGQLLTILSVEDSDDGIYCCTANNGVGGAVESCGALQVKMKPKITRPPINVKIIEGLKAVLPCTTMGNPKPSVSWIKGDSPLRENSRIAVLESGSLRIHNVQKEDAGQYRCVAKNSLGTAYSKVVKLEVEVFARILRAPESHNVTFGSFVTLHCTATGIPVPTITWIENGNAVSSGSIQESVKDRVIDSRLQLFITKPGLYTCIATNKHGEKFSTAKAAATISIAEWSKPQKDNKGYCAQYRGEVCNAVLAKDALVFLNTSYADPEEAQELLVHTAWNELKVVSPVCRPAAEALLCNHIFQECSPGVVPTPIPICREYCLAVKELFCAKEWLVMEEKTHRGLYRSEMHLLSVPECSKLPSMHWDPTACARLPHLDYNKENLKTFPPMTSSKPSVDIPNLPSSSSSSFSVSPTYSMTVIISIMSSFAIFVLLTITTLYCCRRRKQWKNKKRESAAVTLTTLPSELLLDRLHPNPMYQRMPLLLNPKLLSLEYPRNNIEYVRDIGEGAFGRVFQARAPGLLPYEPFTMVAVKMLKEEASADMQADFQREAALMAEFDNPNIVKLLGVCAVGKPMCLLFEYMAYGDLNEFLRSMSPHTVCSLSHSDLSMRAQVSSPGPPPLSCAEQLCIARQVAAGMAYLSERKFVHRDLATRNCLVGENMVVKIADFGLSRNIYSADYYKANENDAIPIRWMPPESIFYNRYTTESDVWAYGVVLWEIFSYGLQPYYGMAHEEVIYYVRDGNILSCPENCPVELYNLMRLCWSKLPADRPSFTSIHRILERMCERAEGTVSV

With C[C@@H](N)COc1ccc(-c2cnc3ccc(N[C@H](C)c4cccc(F)c4)nn23)cc1.O=C(O)CCCCC(=O)O [DS-6051b] the inhibition at 0.04 µM (Erk5) was 16.2%, the “Inhibition of autophosphorylation of ROS1” value [1] was “single-digit to double-digit nanomolar” and the inhibition at 0.2 µM (FAK) was 25.1%. For the same molecule, the inhibition at 0.04 µM (HER2) was 21.5%, the inhibition at 0.04 µM (NEK1) was 7.2% and the inhibition at 0.04 µM (FYN(isoform b)) was 49.2%. For the same molecule, the IC50 [2] was “resistant”, the inhibition at 0.04 µM (PAK5) was 7.7% and the inhibition at 0.04 µM (MELK) was -2.2%. The inhibition at 0.04 µM (PKCβ2) was 19.1%, the IC50 [3] was roughly 50 nM and the IC50 ([3]; Mus musculus, BaF3, 72 h) was 46.6 nM. The inhibition at 0.04 µM (SRPK2) was 1.8%, the inhibition at 0.04 µM (PHKG1) was 48.7% and the inhibition at 0.04 µM (CDK3/CycE1) was 2.1%. For the same molecule, the inhibition at 0.2 µM (KIT; 0.2μM, 1 mM ATP) was 38%, the IC50 (KIT; ATP: 1 mM) was 349 nM and the IC50 [4] was 459 nM. For the same molecule, the inhibition at 0.04 µM (SYK) was 0.327%, the inhibition at 0.04 µM (SRC) was 53.6% and the inhibition at 0.04 µM (MST2) was 42.3%. The inhibition at 0.04 µM (TNK1) was 59.8%, the inhibition at 0.04 µM (PASK) was 6.9% and the inhibition at 0.04 µM (PRKX) was 1.7%. The inhibition at 0.04 µM (PKCθ) was 15.8%, the inhibition at 0.04 µM (DDR1) was 98.2% and the inhibition at 0.2 µM (JAK2) was 33%. The inhibition at 0.04 µM (FLT3) was 61.4%, the Cell growth inhibition [5] was “inhibited cell growth” and the inhibition at 0.2 µM (NTRK1; 0.2μM, 1 mM ATP) was 100%. The IC50 (NTRK1; ATP: 1 mM) was 3.01 nM, the inhibition at 0.04 µM (MUSK) was 96.7% and the “% Inhibition” value (MUSK; 0.04μM, ATP Km) was “potently inhibited”.
